From patent publication US20040053822A1, “Inducing cellular immune responses to mage2/3 using peptide and nucleic acid compositions” (priority 2002, published 2004)
Residues, ends and D or L forms follow the SMILES beside them.

How the values were obtained:
[1] = test system: melanoma cell lines (624 mel and 888 mel); assay: Primary CTL induction, 51Cr release on tumor targets (endogenous recognition); format: cell-based, human
Protocol: (§1) The melanoma cells were treated with 100 U/ml IFNγ (Genzyme) for 48 hours at 37° C. before use as targets in the ^51Cr release and in situ IFNγ assays.
(§2) Restimulation of the induction cultures with peptide-pulsed adherent cells: Seven and fourteen days after the primary induction the cells were restimulated with peptide-pulsed adherent cells. The PBMCS were thawed and washed twice with RPMI and DNAse. The cells were resuspended at 5×10^6 cells/ml and irradiated at ˜4200 rads. The PBMCs were plated at 2×10^6 in 0.5 ml complete medium per well and incubated for 2 hours at 37° C. The plates were washed twice with RPMI by tapping the plate gently to remove the nonadherent cells and the adherent cells pulsed with 10 μg/ml of peptide in the presence of 3 μg/ml β2 microglobulin in 0.25 ml RPMI/5% AB per well for 2 hours at 37° C. Peptide solution from each well was aspirated and the wells were washed once with RPMI. Most of the media was aspirated from the induction cultures (CD8+ cells) and brought to 0.5 ml with fresh media. The cells were then transferred to the wells containing the peptide-pulsed adherent cells. Twenty four hours later rhuman IL10 was added at a final concentration of 10 ng/ml and rhuman IL2 was added the next day and again 2-3 days later at 50 IU/ml (Tsai et al., Critical Reviews in Immunology 18(l-2):65-75, 1998). Seven days later the cultures were assayed for CTL activity in a ^51Cr release assay. In some experiments the cultures were assayed for peptide-specific recognition in the in situ IFNγ ELISA at the time of the second restimulation followed by assay of endogenous recognition 7 days later. After expansion, activity was measured in both assays for a side by side comparison.
Seven days after the second restimulation, cytotoxicity was determined in a standard (5 hr) ^51Cr release assay by assaying individual wells at a single E:T. Peptide-pulsed targets were prepared by incubating the cells with 10 μg/ml peptide overnight at 37° C.
Adherent target cells were removed from culture flasks with trypsin-EDTA. Target cells were labelled with 200 μCi of ^51Cr sodium chromate (Dupont, Wilmington, Del.) for 1 hour at 37° C. […] Target cells.(100 μl) and 100 μl of effectors were plated in 96 well round-bottom plates and incubated for 5 hours at 37° C. At that time, 100 μl of supernatant were collected from each well and percent lysis was determined according to the formula: [(cpm of the test sample−cpm of the spontaneous ^51Cr release sample)/(cpm of the maximal ^51Cr release sample−cpm of the spontaneous ^51Cr release sample)]×100. Maximum and spontaneous release were determined by incubating the labelled targets with 1% Trition X-100 and media alone, respectively.
CTL Expansion. […] The cells were split if the cell concentration exceeded 1×10^6/ml and the cultures were assayed between days 13 and 15 at E:T ratios of 30, 10, 3 and 1:1 in the ^51Cr release assay or at 1×10^6/ml in the in situ IFNγ assay using the same targets as before the expansion.
The A2-supermotif cross-reactive binding peptides that were selected for further evaluation were tested in the cellular assay for the ability to induce peptide-specific CTL in normal individuals.

[2] = test system: 0.221A2.1 cell line (peptide-loaded target); assay: Primary CTL induction from normal donor PBMC, 51Cr release on peptide-pulsed targets; format: cell-based, human
Protocol: as §1
The monocytes were purified by plating 10×10^6 PBMC/well in a 6-well plate. After 2 hours at 37° C., the non-adherent cells were removed by gently shaking the plates and aspirating the supernatants. The wells were washed a total of three times with 3 ml RPMI to remove most of the non-adherent and loosely adherent cells. Three ml of complete medium containing 50 ng/ml of GM-CSF and 1,000 U/ml of IL4 were then added to each well. DC were used for CTL induction cultures following 7 days of culture.
Induction of CTL with DC and Peptide: CD8+ T-cells were isolated by positive selection with Dynal immunomagnetic beads (Dynabeads® M-450) and the detacha-bead® reagent. Typically about 200-250×10^6 PBMC were processed to obtain 24×10^6 CD8^+ T-cells (enough for a 48-well plate culture). Briefly, the PBMCs were thawed in RPMI with 30 μg/ml DNAse, washed once with PBS containing 1% human AB serum and resuspended in PBS/1% AB serum at a concentration of 20×10^6 cells/ml. The magnetic beads were washed 3 times with PBS/AB serum, added to the cells (140 μl beads/20×10^6 cells) and incubated for 1 hour at 4° C. with continuous mixing. The beads and cells were washed 4× with PBS/AB serum to remove the nonadherent cells and resuspended at 100×10^6 cells/ml (based on the original cell number) in PBS/AB serum containing 100 μ/ml detacha-bead® reagent and 30 μg/ml DNAse. The mixture is incubated for 1 hour at room temperature with continuous mixing. The beads were washed again with PBS/AB/DNAse to collect the CD8+ T-cells. The DC were collected and centrifuged at 1300 rpm for 5-7 minutes, washed once with PBS with 1% BSA, counted and pulsed with 40 μg/ml of peptide at a cell concentration of 1-2×10^6/ml in the presence of 3 μg/ml β2- microglobulin for 4 hours at 20° C. The DC were then irradiated (4,200 rads), washed 1 time with medium and counted again.
Setting up induction cultures: 0.25 ml cytokine-generated DC (@1×10^5 cells/ml) were co-cultured with 0.25 ml of CD8+ T-cells (@2×10^6 cell/ml) in each well of a 48-well plate in the presence of 10 ng/ml of IL-7. rHuman IL10 was added the next day at a final concentration of 10 ng/ml and rhuman IL2 was added 48 hours later at 10 IU/ml.
as §2, with “comparison. […]” for “comparison.”

HLA-B*5401 = HLA-B*5401 (Homo sapiens, UniProt P01889, A329T/C349S/D138N/D201E/E176V/E187T/E204Q/E69G/I76V/K202T/L119W/R155S/R180L/S121T/S35A/S48A/V127L/V306I/V36M/Y140L); assay: Purified HLA class I peptide binding assay, B*5401; details: binding affinity, HLA-B7 supermotif-bearing peptides
HLA-B*5101 (B51) = HLA-B*5101 (B51) (Homo sapiens, UniProt P01889, A329T/A93T/A95T/C349S/D138N/D201E/D98Y/E187L/E204Q/E69T/G107R/I218V/K202T/L105A/L119W/N104I/Q94N/R106L/R155S/R180L/S101N/S121T/S35A/S48A/V306I/V36M/Y195H/Y91F); assay: Purified HLA class I peptide binding assay, B51; details: binding affinity, HLA-B7 supermotif-bearing peptides; read-out: B*5101 nM
HLA-B*3501 = HLA-B*3501 (Homo sapiens, UniProt P01889, A329T/A93T/A95T/C349S/D201E/D98Y/E176V/E187L/E204Q/E69T/I218V/K202T/L119I/Q94N/R155S/R180L/S121R/S35A/S48A/T118I/V127L/V306I/V36M/Y140S/Y91F); assay: Purified HLA class I peptide binding assay, B*3501; details: binding affinity, HLA-B7 supermotif-bearing peptides
HLA-B*5301 = HLA-B*5301 (Homo sapiens, UniProt P01889, A329T/A93T/A95T/C349S/D201E/D98Y/E176V/E187L/E204Q/E69T/G107R/I218V/K202T/L105A/L119I/N104I/Q94N/R106L/R155S/R180L/S101N/S121R/S35A/S48A/T118I/V127L/V306I/V36M/Y140S/Y91F); assay: Purified HLA class I peptide binding assay, B*5301; details: binding affinity, HLA-B7 supermotif-bearing peptides
HLA-B*0702 = HLA-B*0702 (Homo sapiens, UniProt P01889); assay: Purified HLA class I peptide binding assay, B*0702; details: binding affinity, HLA-B7 supermotif-bearing peptides
[3] = number of donors positive over total tested, tumor targets
[4] = Number of donors yielding a positive response/total tested
[5] = number of donors positive over the total number of donors tested

IC50 (HLA-B*5401) | IC50 (HLA-B*5101 (B51)) | IC50 (HLA-B*3501) | IC50 (HLA-B*5301) | IC50 (HLA-B*0702) | SMILES | CTL Tumor [1, 3] | CTL Wild-type [2, 4] | CTL Wild-type [2, 5] | CTL Tumor ([1]; donors positive over total tested, positive result seen after the second restim.)
– | – | – | – | – | CC[C@H](C)[C@H](NC(=O)[C@@H](N)CCCCN)C(=O)N[C@@H](Cc1c[nH]c2ccccc12)C(=O)N[C@@H](CCC(=O)O)C(=O)N[C@@H](CCC(=O)O)C(=O)N[C@@H](CC(C)C)C(=O)N[C@@H](CO)C(=O)N[C@H](C(=O)N[C@@H](CC(C)C)C(=O)O)C(C)C | 0/3^ | 3/4 | 3/4 | –
– | – | – | – | – | CC(C)C[C@H](NC(=O)[C@H](CC(C)C)NC(=O)[C@H](Cc1ccccc1)NC(=O)[C@H](Cc1c[nH]cn1)NC(=O)[C@@H](NC(=O)[C@H](CC(C)C)NC(=O)[C@H](CCC(=O)O)NC(=O)[C@H](C)NC(=O)[C@@H](NC(=O)[C@@H](N)CCCCN)C(C)C)C(C)C)C(=O)O | 0/1^ | – | 0/1 | –
– | – | – | – | – | CC[C@H](C)[C@H](NC(=O)CNC(=O)[C@H](Cc1ccccc1)NC(=O)[C@@H](NC(=O)[C@@H](N)CC(C)C)C(C)C)C(=O)N[C@@H](CCC(=O)O)C(=O)N[C@H](C(=O)N[C@H](C(=O)N[C@@H](CCC(=O)O)C(=O)N[C@H](C(=O)O)C(C)C)C(C)C)C(C)C | 0/3^ | – | 4/4 | –
– | – | – | – | – | CC[C@H](C)[C@H](NC(=O)CNC(=O)[C@H](Cc1ccccc1)NC(=O)[C@@H](NC(=O)[C@H](CC(C)C)NC(=O)[C@@H](N)CCC(N)=O)C(C)C)C(=O)N[C@@H](CCC(=O)O)C(=O)N[C@@H](CC(C)C)C(=O)N[C@@H](CCSC)C(=O)N[C@@H](CCC(=O)O)C(=O)N[C@H](C(=O)O)C(C)C | – | – | – | 1/3^2
0.4 nM | 56 nM | 51 nM | 179 nM | 39 nM | CC[C@H](C)[C@H](NC(=O)[C@H](Cc1ccc(O)cc1)NC(=O)[C@H](CC(C)C)NC(=O)[C@H](Cc1c[nH]cn1)NC(=O)CNC(=O)[C@@H](NC(=O)[C@@H]1CCCN1C(=O)[C@@H](N)Cc1ccccc1)[C@@H](C)CC)C(=O)N[C@@H](Cc1ccccc1)C(=O)N[C@@H](C)C(=O)O (H-FPIGHLYIFA-OH; N-terminus and C-terminus assumed) | – | – | – | –
1.1 nM | 190 nM | 878 nM | 4650 nM | 220 nM | CC[C@H](C)[C@H](NC(=O)[C@H](CC(C)C)NC(=O)[C@H](CC(C)C)NC(=O)CNC(=O)[C@H](C)NC(=O)[C@H](CCCCN)NC(=O)[C@@H]1CCCN1C(=O)[C@@H](N)Cc1ccccc1)C(=O)N[C@H](C(=O)N[C@H](C(=O)O)C(C)C)[C@@H](C)CC (H-FPKAGLLIIV-OH; N-terminus and C-terminus assumed) | – | – | – | –
127 nM | 70 nM | 3600 nM | 465 nM | 7.4 nM | CC[C@H](C)[C@H](NC(=O)[C@H](Cc1ccc(O)cc1)NC(=O)[C@H](CO)NC(=O)[C@@H](NC(=O)[C@H](CCC(=O)O)NC(=O)[C@@H](NC(=O)[C@H](CC(C)C)NC(=O)[C@H](C)NC(=O)[C@H](CCCNC(=N)N)NC(=O)[C@@H]1CCCN1C(=O)[C@@H](N)Cc1ccccc1)[C@@H](C)CC)[C@@H](C)O)C(=O)O (H-FPRALIETSYI-OH; N-terminus and C-terminus assumed) | – | – | – | –
3 nM | 423 nM | 4.5 nM | 39 nM | 6.4 nM | CSCC[C@H](NC(=O)[C@@H](NC(=O)[C@@H](NC(=O)[C@@H]1CCCN1C(=O)[C@@H](N)Cc1ccccc1)[C@@H](C)O)[C@@H](C)O)C(=O)N[C@@H](CC(N)=O)C(=O)N[C@@H](Cc1ccc(O)cc1)C(=O)N1CCC[C@H]1C(=O)N[C@@H](CC(C)C)C(=O)O (H-FPTTMNYPL-OH; N-terminus and C-terminus assumed) | – | – | – | –
– | – | – | – | – | CC[C@H](C)[C@H](NC(=O)CNC(=O)[C@H](Cc1ccccc1)NC(=O)[C@@H](NC(=O)[C@H](CC(C)C)NC(=O)[C@H](CCC(N)=O)NC(=O)[C@H](CC(C)C)NC(=O)[C@@H](N)Cc1ccc(O)cc1)C(C)C)C(=O)N[C@@H](CCC(=O)O)C(=O)N[C@H](C(=O)O)C(C)C [YLQLVFG1EV] | – | 313 | – | –
